Converted amounts (≈) assume the structure as drawn. The source made the active and inactive calls. No cut-off for these calls is given here.
Key:
Staphylococcus aureus [1] = test: Antibacterial activity against Staphylococcus aureus by manual microdilution technique; format: functional
[2] = Drug level in Staphylococcus aureus infection-induced aortic valve endocarditis rabbit serum at 20 mg/kg, iv administered every 12 hrs measured 30 mins after seventh dose; format: ADME, organism-based, Oryctolagus cuniculus; design: dose 20 mg/kg, route intravenous; details: read-out: Drug uptake
Staphylococcus aureus [3] = test: Antibacterial activity against Staphylococcus aureus by Etest; format: functional
[4] = AUC (0 to 12 hrs) in Staphylococcus aureus infection-induced aortic valve endocarditis rabbit at 20 mg/kg, iv administered every 12 hrs measured after seventh dose in presence of Dexamethasone; format: ADME, organism-based, Oryctolagus cuniculus; design: time < 12 hr, dose 20 mg/kg, route intravenous; details: plasma
Oryctolagus cuniculus [5] = test: Toxicity in Staphylococcus aureus infection-induced aortic valve endocarditis rabbit assessed as calcification median score at 20 mg/kg, iv administered every 12 hrs for 5 days sacrificed 12 days after last dose by histopathology; format: organism-based; design: dose 20 mg/kg, route intravenous; details: in vivo, 288 h
Oryctolagus cuniculus [6] = test: Toxicity in Staphylococcus aureus infection-induced aortic valve endocarditis rabbit assessed as tissue valve damage median score at 20 mg/kg, iv administered every 12 hrs for 5 days sacrificed 12 days after last dose by histopathology; format: organism-based; design: dose 20 mg/kg, route intravenous; details: in vivo
Staphylococcus aureus [7] = test: Antibacterial activity against Staphylococcus aureus infection-induced aortic valve endocarditis in rabbit assessed as reduction in bacterial burdens in heart valve tissue culture at 20 mg/kg, iv administered every 12 hrs for 5 days sacrificed 12 hrs after end of treatment; format: functional, Aorta
Oryctolagus cuniculus [8] = test: Toxicity in Staphylococcus aureus infection-induced aortic valve endocarditis rabbit assessed as fibrous content median score at 20 mg/kg, iv administered every 12 hrs for 5 days sacrificed 12 days after last dose by histopathology; format: organism-based; design: dose 20 mg/kg, route intravenous; details: in vivo, 288 h
[9] = AUC (0 to 12 hrs) in Staphylococcus aureus infection-induced aortic valve endocarditis rabbit at 20 mg/kg, iv administered every 12 hrs measured after seventh dose; format: ADME, organism-based, Oryctolagus cuniculus; design: time < 12 hr, dose 20 mg/kg, route intravenous; details: plasma
Staphylococcus aureus [10] = test: Antibacterial activity against Staphylococcus aureus infection-induced aortic valve endocarditis in rabbit assessed as number of survival days at 20 mg/kg, iv administered every 12 hrs for 5 days; format: functional, Aorta
Oryctolagus cuniculus [11] = test: Toxicity in Staphylococcus aureus infection-induced aortic valve endocarditis rabbit assessed as inflammatory cell infiltration median score at 20 mg/kg, iv administered every 12 hrs for 5 days sacrificed 12 days after last dose by histopathology; format: organism-based; design: dose 20 mg/kg, route intravenous; details: in vivo, 288 h
Staphylococcus aureus [12] = test: Antibacterial activity against Staphylococcus aureus infection-induced aortic valve endocarditis in rabbit assessed as cured animals in blood culture at 20 mg/kg, iv administered every 12 hrs for 5 days sacrificed 12 days after last dose; format: functional, organism-based; design: dose 20 mg/kg
[13] = AUC (0 to 12 hrs) in Staphylococcus aureus infection-induced aortic valve endocarditis rabbit at 20 mg/kg, iv administered every 12 hrs measured after third dose; format: ADME, organism-based, Oryctolagus cuniculus; design: time < 12 hr, dose 20 mg/kg, route intravenous; details: plasma
Staphylococcus aureus [14] = test: Antibacterial activity against Staphylococcus aureus infection-induced aortic valve endocarditis in rabbit assessed as cured animals in blood culture at 20 mg/kg, iv administered every 12 hrs for 5 days sacrificed 12 hrs after end of treatment; format: functional, organism-based; design: dose 20 mg/kg
Staphylococcus aureus [15] = test: Cardiovascular activity in Staphylococcus aureus infection-induced aortic valve endocarditis rabbit assessed as increase in fractional shortening at 20 mg/kg, iv administered every 12 hrs for 5 days […]; format: functional, organism-based; design: dose 20 mg/kg
[16] = Concentration in Staphylococcus aureus infection-induced aortic valve endocarditis rabbit serum at 20 mg/kg, iv administered every 12 hrs measured 30 mins after third dose; format: ADME, organism-based, Oryctolagus cuniculus; design: dose 20 mg/kg, route intravenous; details: read-out: Drug uptake
Staphylococcus aureus [17] = test: Antibacterial activity against Staphylococcus aureus infection-induced aortic valve endocarditis in rabbit assessed as reduction in bacterial burdens in blood culture at 20 mg/kg, iv administered every 12 hrs for 5 days sacrificed 12 days after last dose; format: functional
Staphylococcus aureus [18] = test: Antibacterial activity against Staphylococcus aureus infection-induced aortic valve endocarditis in rabbit assessed as reduction in bacterial burdens in blood culture at 20 mg/kg, iv administered every 12 hrs for 5 days sacrificed 12 hrs after end of treatment; format: functional
Oryctolagus cuniculus [19] = test: Toxicity in Staphylococcus aureus infection-induced aortic valve endocarditis rabbit assessed as collagenization median score at 20 mg/kg, iv administered every 12 hrs for 5 days sacrificed 12 days after last dose by histopathology; format: organism-based; design: dose 20 mg/kg, route intravenous; details: in vivo, 288 h
[20] = Concentration in Staphylococcus aureus infection-induced aortic valve endocarditis rabbit serum at 20 mg/kg, iv administered every 12 hrs measured 12hrs after seventh dose in presence of Dexamethasone; format: ADME, organism-based, Oryctolagus cuniculus; design: dose 20 mg/kg, route intravenous; details: read-out: Drug uptake
Staphylococcus aureus [21] = test: Antibacterial activity against Staphylococcus aureus at 0.5 mg/liter by time kill assay; format: functional
Staphylococcus aureus [22] = test: Antibacterial activity against Staphylococcus aureus infection-induced aortic valve endocarditis in rabbit assessed as reduction in bacterial burdens in heart valve tissue culture at 20 mg/kg, iv administered every 12 hrs for 5 days sacrificed 12 days after last dose; format: functional, Aorta
[23] = Drug level in Staphylococcus aureus infection-induced aortic valve endocarditis rabbit serum at 20 mg/kg, iv administered every 12 hrs measured 12 hrs after seventh dose; format: ADME, organism-based, Oryctolagus cuniculus; design: dose 20 mg/kg, route intravenous; details: read-out: Drug uptake
[24] = Concentration in Staphylococcus aureus infection-induced aortic valve endocarditis rabbit serum at 20 mg/kg, iv administered every 12 hrs measured 30 mins after seventh dose in presence of Dexamethasone; format: ADME, organism-based, Oryctolagus cuniculus; design: dose 20 mg/kg, route intravenous; details: read-out: Drug uptake
[25] = Concentration in Staphylococcus aureus infection-induced aortic valve endocarditis rabbit serum at 20 mg/kg, iv administered every 12 hrs measured 12 hrs after third dose; format: ADME, organism-based, Oryctolagus cuniculus; design: dose 20 mg/kg, route intravenous; details: read-out: Drug uptake

CC1(C)S[C@@H]2[C@H](NC(=O)[C@H](N)c3ccc(O)cc3)C(=O)N2[C@H]1C(=O)O [AMOXICILLIN]
MBC (Staphylococcus aureus [1]): 4 µg/mL (≈ 10.9 µM) | MIC (Staphylococcus aureus [1]): 2 µg/mL (≈ 5.47 µM)

COc1c(N2C[C@@H]3CCCN[C@@H]3C2)c(F)cc2c(=O)c(C(=O)O)cn(C3CC3)c12 [MOXIFLOXACIN]
concentration at 0.5 h [2]: 4390 ng/mL | MIC (Staphylococcus aureus [3]): 0.064 µg/mL (≈ 0.159 µM) | MBC (Staphylococcus aureus [1]): 0.125 µg/mL (≈ 0.311 µM) | MIC (Staphylococcus aureus [1]): 0.125 µg/mL (≈ 0.311 µM) | AUC at 12 h [4]: 23900 ng·h/mL | Activity (Oryctolagus cuniculus [5]): 1.6 | Activity (Oryctolagus cuniculus [6]): 2.3 | log10CFU/g (Staphylococcus aureus [7]): 2.1 | Activity (Oryctolagus cuniculus [8]): 1.6 | AUC at 12 h [9]: 22200 ng·h/mL | Survival (Staphylococcus aureus [10]): 15.3 days | Activity (Oryctolagus cuniculus [11]): 1.2 | Activity (Staphylococcus aureus [12]): Active | AUC at 12 h [13]: 16500 ng·h/mL | Activity (Staphylococcus aureus [14]): Active | Activity (Staphylococcus aureus [15]): Active | concentration at 0.5 h [16]: 3730 ng/mL | log10CFU/ml (Staphylococcus aureus [17]): 2.76 log10 CFU/ml | log10CFU/ml (Staphylococcus aureus [18]): 2.83 | Activity (Oryctolagus cuniculus [19]): 2 | concentration at 12 h [20]: 1000 ng/mL | log10CFU/ml (Staphylococcus aureus [21]): >3 | log10CFU/g (Staphylococcus aureus [22]): 2.2 | concentration at 12 h [23]: 510 ng/mL | concentration at 0.5 h [24]: 3330 ng/mL | concentration at 12 h [25]: 230 ng/mL

Cc1onc(-c2ccccc2)c1C(=O)N[C@@H]1C(=O)N2[C@@H]1SC(C)(C)[C@@H]2C(=O)O [OXACILLIN]
MBC (Staphylococcus aureus [1]): 0.5 µg/mL (≈ 1.25 µM) | MIC (Staphylococcus aureus [1]): ≤ 0.25 µg/mL
